Results: the supplement of paper PMC10307832

Assays:
Test in all cases: relative viability (nuclei count vs DMSO), 5 days (fraction); higher = more cells survive
Selisistat + Lapatinib = compound: C1CC(C2=C(C1)C3=C(N2)C=CC(=C3)Cl)C(=O)N [Selisistat] + CS(=O)(=O)CCNCc1ccc(-c2ccc3ncnc(Nc4ccc(OCc5cccc(F)c5)c(Cl)c4)c3c2)o1 [Lapatinib] (partner 2 µM)
Procedure, shortened: (§1)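 Lung cancer cell lines, seeded in 1536-well plates, were treated the following day by pin tool with a single drug or with five library-drug doses (not always all listed) in √10 steps on top of a fixed anchor-drug dose. Cells were fixed and nuclei stained in one step after 5 days, and nuclei were counted. Relative viability is the nuclei count for treated wells divided by that for vehicle wells, reported as medians of duplicate plates.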

Serdemetan + Tozasertib = compound: c1ccc2c(CCNc3ccc(Nc4ccncc4)cc3)c[nH]c2c1 [Serdemetan] + Cc1cc(Nc2cc(N3CCN(C)CC3)nc(Sc3ccc(NC(=O)C4CC4)cc3)n2)n[nH]1 [Tozasertib] (partner 0.1 µM)
Procedure, shortened: as §1

Selisistat + Olaparib = compound: C1CC(C2=C(C1)C3=C(N2)C=CC(=C3)Cl)C(=O)N [Selisistat] + O=C(c1cc(Cc2n[nH]c(=O)c3ccccc23)ccc1F)N1CCN(C(=O)C2CC2)CC1 [Olaparib] (partner 8 µM)
Procedure, shortened: as §1

Serdemetan + Decitabine = compound: c1ccc2c(CCNc3ccc(Nc4ccncc4)cc3)c[nH]c2c1 [Serdemetan] + Nc1ncn([C@H]2C[C@H](O)[C@@H](CO)O2)c(=O)n1 [Decitabine] (partner 2 µM)
Procedure, shortened: as §1

Cell Line | relative viability (Selisistat + Lapatinib; first compound 0.4 µM) | relative viability (Selisistat + Lapatinib; first compound 1.265 µM) | relative viability (Selisistat + Lapatinib; first compound 4 µM) | relative viability (Selisistat + Lapatinib; first compound 12.65 µM) | relative viability (Selisistat + Lapatinib; first compound 40 µM) | relative viability (Serdemetan + Tozasertib; first compound 0.04 µM) | relative viability (Serdemetan + Tozasertib; first compound 0.1265 µM) | relative viability (Serdemetan + Tozasertib; first compound 0.4 µM) | relative viability (Serdemetan + Tozasertib; first compound 1.265 µM) | relative viability (Serdemetan + Tozasertib; first compound 4 µM) | relative viability (Selisistat + Olaparib; first compound 0.4 µM) | relative viability (Selisistat + Olaparib; first compound 1.265 µM) | relative viability (Selisistat + Olaparib; first compound 4 µM) | relative viability (Selisistat + Olaparib; first compound 12.65 µM) | relative viability (Selisistat + Olaparib; first compound 40 µM) | relative viability (Serdemetan + Decitabine; first compound 0.04 µM) | relative viability (Serdemetan + Decitabine; first compound 0.1265 µM) | relative viability (Serdemetan + Decitabine; first compound 0.4 µM) | relative viability (Serdemetan + Decitabine; first compound 1.265 µM) | relative viability (Serdemetan + Decitabine; first compound 4 µM)
LXF-289 | 0.913 | 0.949 | 0.926 | 0.864 | 0.921 | 0.213 | 0.21 | 0.171 | 0.164 | 0.118 | 1.1 | 1.03 | 0.96 | 0.966 | 1.04 | 0.354 | 0.357 | 0.349 | 0.268 | 0.337
NCI-H23 | 1.16 | 1.06 | – | 1.24 | 1 | 0.436 | 0.413 | 0.358 | 0.305 | 0.265 | 0.234 | 0.353 | – | 0.305 | 0.31 | 0.303 | 0.308 | 0.223 | – | 0.302
NCI-H322M | 0.595 | 0.562 | – | 0.623 | 0.561 | 0.447 | 0.457 | 0.484 | 0.35 | 0.437 | 0.857 | 0.83 | – | 0.845 | 0.868 | 0.667 | 0.675 | 0.682 | 0.534 | 0.647
NCI-H358 | 0.492 | 0.443 | – | 0.397 | 0.373 | 0.0807 | 0.105 | 0.111 | 0.102 | 0.0954 | 0.724 | 0.593 | 0.696 | 0.553 | 0.662 | 0.186 | 0.234 | 0.221 | 0.18 | 0.195
NCI-H460 | 0.909 | 0.952 | – | 0.903 | 0.911 | 0.647 | 0.403 | 0.399 | 0.402 | 0.12 | 0.452 | 0.404 | – | 0.319 | 0.403 | 0.374 | 0.385 | 0.314 | 0.194 | 0.102
NCI-H520 | 0.811 | 0.898 | 0.814 | 0.751 | 0.766 | 0.42 | 0.413 | 0.441 | 0.329 | 0.313 | 0.413 | 0.317 | 0.364 | 0.344 | 0.319 | 0.44 | 0.481 | 0.57 | 0.4 | 0.335
NCI-H596 | 1.16 | 1.16 | 1.03 | 1.14 | 1.12 | 0.825 | 0.787 | 0.774 | 0.513 | 0.34 | 0.802 | 0.715 | 0.643 | 0.619 | 0.609 | 0.965 | 0.94 | 0.772 | 0.636 | 0.588
NCI-H647 | 1.19 | 1.07 | – | 0.993 | 1.17 | 0.355 | 0.291 | 0.226 | 0.287 | 0.223 | 0.622 | 0.577 | 0.736 | 0.48 | 0.591 | 0.276 | 0.368 | 0.403 | 0.28 | 0.235
NCI-H650 | 1.09 | – | 0.916 | 0.941 | 1.11 | 0.661 | 0.679 | 0.803 | 0.642 | 0.581 | 0.51 | 0.379 | 0.496 | 0.382 | 0.3 | 0.321 | 0.331 | 0.321 | 0.24 | 0.262
NCI-H661 | 0.515 | 0.469 | 0.502 | 0.396 | 0.535 | 0.362 | 0.381 | 0.385 | 0.308 | 0.352 | 0.739 | 0.713 | 0.781 | 0.667 | 0.577 | 0.543 | 0.533 | 0.533 | 0.473 | 0.469
NCI-H727 | 0.626 | 0.841 | – | – | 0.725 | 0.695 | 0.542 | 0.509 | 0.585 | 0.518 | 0.737 | 0.635 | 0.631 | 0.655 | 0.687 | 0.849 | 0.797 | 0.828 | 0.965 | 0.826
NCI-H838 | 1.09 | 0.965 | 0.627 | 0.966 | 0.958 | 0.282 | 0.246 | 0.234 | 0.231 | 0.232 | 0.833 | 0.782 | 0.842 | 0.75 | 0.733 | 0.437 | 0.459 | 0.404 | 0.386 | 0.451
NCI-H1355 | 0.923 | 1 | – | 1.02 | 1.04 | 0.489 | 0.508 | 0.443 | 0.381 | 0.385 | 0.796 | 0.775 | 0.664 | 0.735 | 0.813 | 0.382 | 0.34 | 0.306 | 0.288 | 0.31
NCI-H1395 | 1.09 | 0.973 | 1 | 0.91 | 0.883 | 0.736 | 0.742 | 0.838 | 0.751 | 0.513 | 0.474 | 0.47 | – | 0.451 | 0.465 | 0.772 | 0.694 | 0.687 | 0.637 | 0.57
NCI-H1437 | 0.801 | 0.758 | 0.341 | 0.71 | 0.776 | 0.375 | 0.399 | 0.383 | 0.331 | 0.285 | 0.599 | 0.615 | 0.618 | 0.565 | 0.544 | 0.511 | 0.5 | 0.582 | 0.492 | 0.427
NCI-H1650 | 0.918 | 0.74 | 0.579 | 0.685 | 0.693 | 0.415 | 0.483 | 0.405 | 0.389 | 0.351 | 0.933 | 0.863 | 0.86 | 0.852 | 0.702 | 0.408 | 0.435 | 0.411 | 0.422 | 0.266
NCI-H1651 | 0.785 | 0.769 | 0.749 | 0.789 | 0.939 | 0.696 | 0.613 | 0.338 | 0.343 | 0.292 | 0.197 | 0.168 | 0.215 | 0.183 | 0.21 | 0.486 | 0.414 | 0.497 | 0.275 | 0.289
